Assays:
[1] = in vitro; conditions: human
[2] = tested on: HCV genotype 1b subgenomic replicon (2209-23 cells); experiment: HCV Replicon assay (Renilla luciferase reporter); assay type: cell-based; conditions: Hepatitis C virus, Huh-7, 72 h; genotype 1b replicon, 2209-23 Huh7 cells, three days incubation, Renilla luciferase readout

Compound | CC50 [1] | IC50 [2]
CC(C)OC(=O)[C@H](C)NP(=O)(OC[C@@]1(N=[N+]=[N-])O[C@@H](n2ccc(=O)[nH]c2=O)[C@H](O)[C@@H]1F)Oc1ccccc1 (stereo partly drawn) [Compound I-1, (S)-2-{[(2R,3S,4S,5R)-2-Azido-5-(2,4-dioxo-3,4-dihydro-2H-pyrimidin-1-yl)-3-fluoro-4-hydroxy-tetrahydro-furan-2-ylmethoxy]-phenoxy-phosphorylamino}-propionic acid isopropyl ester] | > 100 µM | > 100 µM
CCOC(=O)[C@H](C)NP(=O)(OC[C@@]1(N=[N+]=[N-])O[C@@H](n2ccc(=O)[nH]c2=O)[C@H](O)[C@@H]1F)Oc1ccccc1 (stereo partly drawn) [Compound I-2, (S)-2-{[(2R,3S,4S,5R)-2-Azido-5-(2,4-dioxo-3,4-dihydro-2H-pyrimidin-1-yl)-3-fluoro-4-hydroxy-tetrahydro-furan-2-ylmethoxy]-phenoxy-phosphorylamino}-propionic acid ethyl ester] | > 100 µM | 39.8 µM
CCOC(=O)[C@H](C)NP(=O)(OC[C@@]1(N=[N+]=[N-])O[C@@H](n2ccc(=O)[nH]c2=O)[C@H](O)[C@@H]1F)Oc1cccc2ccccc12 (stereo partly drawn) [Compound I-3, (S)-2-[[(2R,3S,4S,5R)-2-Azido-5-(2,4-dioxo-3,4-dihydro-2H-pyrimidin-1-yl)-3-fluoro-4-hydroxy-tetrahydro-furan-2-ylmethoxy]-(naphthalen-1-yloxy)-phosphorylamino]-propionic acid ethyl ester] | > 100 µM | 79.1 µM
CC(C)OC(=O)[C@H](C)NP(=O)(OC[C@@]1(N=[N+]=[N-])O[C@@H](n2ccc(N)nc2=O)[C@H](O)[C@@H]1F)Oc1cccc2ccccc12 (stereo partly drawn) [Compound I-4, (S)-2-[[(2R,3S,4S,5R)-5-(4-Amino-2-oxo-2H-pyrimidin-1-yl)-2-azido-3-fluoro-4-hydroxy-tetrahydro-furan-2-ylmethoxy]-(naphthalen-1-yloxy)-phosphorylamino]-propionic acid isopropyl ester] | > 100 µM | > 100 µM
C[C@H](NP(=O)(OC[C@@]1(N=[N+]=[N-])O[C@@H](n2ccc(N)nc2=O)[C@H](O)[C@@H]1F)Oc1cccc2ccccc12)C(=O)OCc1ccccc1 (stereo partly drawn) [Compound I-5, (S)-2-[[(2R,3S,4S,5R)-5-(4-Amino-2-oxo-2H-pyrimidin-1-yl)-2-azido-3-fluoro-4-hydroxy-tetrahydro-furan-2-ylmethoxy]-(naphthalen-1-yloxy)-phosphorylamino]-propionic acid benzyl ester] | 91.2 µM | 1.54 µM
CCOC(=O)[C@H](C)NP(=O)(OC[C@@]1(N=[N+]=[N-])O[C@@H](n2ccc(N)nc2=O)[C@H](O)[C@@H]1F)Oc1cccc2ccccc12 (stereo partly drawn) [Compound I-6, (S)-2-[[(2R,3S,4S,5R)-5-(4-Amino-2-oxo-2H-pyrimidin-1-yl)-2-azido-3-fluoro-4-hydroxy-tetrahydro-furan-2-ylmethoxy]-(naphthalen-1-yloxy)-phosphorylamino]-propionic acid ethyl ester] | > 100 µM | 32 µM
CC(C)OC(=O)[C@H](C)NP(=O)(OC[C@@]1(N=[N+]=[N-])O[C@@H](n2ccc(N)nc2=O)[C@H](O)[C@@H]1F)Oc1ccccc1 (stereo partly drawn) [Compound I-7, (S)-2-{[(2R,3S,4S,5R)-5-(4-Amino-2-oxo-2H-pyrimidin-1-yl)-2-azido-3-fluoro-4-hydroxy-tetrahydro-furan-2-ylmethoxy]-phenoxy-phosphorylamino}-propionic acid isopropyl ester] | > 100 µM | 56 µM
CC(C)OC(=O)[C@H](C)NP(=O)(O)OC[C@@]1(N=[N+]=[N-])O[C@@H](n2ccc(N)nc2=O)[C@H](O)[C@@H]1F [Compound I-8, (S)-2-{[(2R,3S,4S,5R)-5-(4-Amino-2-oxo-2H-pyrimidin-1-yl)-2-azido-3-fluoro-4-hydroxy-tetrahydro-furan-2-ylmethoxy]-hydroxy-phosphorylamino}-propionic acid isopropyl ester] | > 100 µM | > 100 µM
CCC(=O)O[C@H]1[C@H](n2ccc(N)nc2=O)O[C@@](COP(=O)(N[C@@H](C)C(=O)OC(C)C)Oc2cccc3ccccc23)(N=[N+]=[N-])[C@H]1F (stereo partly drawn) [Compound I-9, (S)-2-[[(2R,3S,4S,5R)-5-(4-Amino-2-oxo-2H-pyrimidin-1-yl)-2-azido-3-fluoro-4-propionyloxy-tetrahydro-furan-2-ylmethoxy]-(naphthalen-1-yloxy)-phosphorylamino]-propionic acid isopropyl ester] | 58 µM | 27 µM

Reference: US9708357B2, “4′-azido, 3′-fluoro substituted nucleoside derivatives as inhibitors of HCV RNA replication” (Riboscience LLC, priority 2011, dated 2017)
